Data reported in patent US20130217721A1, “COMPOSITIONS AND METHODS FOR DETECTION AND TREATMENT OF B-RAF INHIBITOR-RESISTANT MELANOMAS” (The Regents of the University of California, priority 2010, published 2013).

How the values were obtained:
[1] = test system: SKMEL-239 PLX4032-resistant clones C1-5; test: Proliferation assay of PLX4032-resistant clones; format: cell-based, human; conditions: all five resistant clones, albeit at slightly higher doses
Description: Cell proliferation and cell cycle analysis. All melanoma cell lines were generated by A. Houghton (MSKCC) or obtained from ATCC. 293H cells were obtained from Invitrogen. Cells were maintained in DMEM (293H and MEFs), or RPMI (all other cell lines) supplemented with 2 mM glutamine, antibiotics and 10% fetal bovine serum. We confirmed by DNA fingerprinting^20 that all PLX4032-resistant, SKMEL-239 clones were derived from the same patient, thus excluding the possibility of contamination (Table 6). For proliferation assays, cells were plated in 6 well plates and 24 hours later were treated with varying concentrations of inhibitors as indicated. IC50 values were calculated using Graph Pad Prism v.5. For cell cycle and apoptosis studies, cells were seeded in 6 well dishes the day prior to drug treatment. For analysis, both adherent and floating cells were harvested and stained with ethidium bromide as described previously^21.

[2] = test system: Pt55 R short-term culture; test: Cell survival / proliferation assay (72 h); format: cell-based, human; conditions: for growth sensitivity to MEK inhibition: 72 h, in the presence or absence of PLX4032
Description: (§1) Cells were maintained in Dulbecco's modified Eagle medium (DMEM) with 10 or 20% fetal bovine serum and glutamine. shRNAs were sub-cloned into the lentiviral vector pLL3.7 and infections carried out with protamine sulphate. Stocks of PLX4032 (Plexxikon) and AZD6244 (commercially available) were made in DMSO. Cells were quantified using CellTiter-GLO Luminescence (Promega).
(§2) Cell proliferation experiments were performed in a 96-well format (five replicates), and baseline quantification performed at 24 h after cell seeding along with initiation of drug treatments (72 h). Stocks and dilutions of PLX4032 (Plexxikon), AZD6244 (Selleck Chemicals) and U0126 (Promega) were made in DMSO. siRNA pool (Dharmacon) transfections were carried out in 384-well format. TransIT transfection reagent (Mirus) was added to each well and incubated at 37° C. for 20 min. Subsequently, cells were reverse transfected, and the mixture was incubated for 51-61 h at 37° C. Cells were quantified using CellTiter 96 Aqueous One Solution (Promega) or CellTiter-GLO Luminescence (Promega) following the manufacturer's recommendations.

[3] = test system: Pt48 R short-term culture; test: Cell survival / proliferation assay (72 h); format: cell-based, human; conditions: for growth sensitivity to inhibitor: 72 h, PLX4032-resistant cells grown with PLX4032
Description: as §1, §2

[4] = test system: M238 R sub-lines (M238 R1); test: Cell survival / proliferation assay (72 h); format: cell-based, human; conditions: M238 R1, 72 h, PLX4032-resistant cells grown with PLX4032
Description: as §1, §2

[5] = test system: M229 R sub-lines (M229 R5); test: Cell survival / proliferation assay (72 h); format: cell-based, human; conditions: M229 R5, 72 h, PLX4032-resistant cells grown with PLX4032
Description: as §1, §2

[6] = test system: M249 R sub-line (M249 R4); test: Cell survival / proliferation assay (72 h); format: cell-based, human; conditions: for growth sensitivity to MEK inhibition: M249 R4, 72 h, in the presence or absence of PLX4032
Description: as §1, §2
(§3) Cell culture, infections and drug treatments. Cells were maintained in DMEM with 10 or 20% fetal bovine serum and glutamine. shRNAs for B-RAF and C-RAF were sub-cloned into the lentiviral vector pLL3.7; pBabe B-RAF (V600E) was purchase (plasmid 17544, Addgene); viral supernatants generated by co-transfection with three packaging plasm ids into HEK293T cells; and infections carried out with protamine sulfate. Stocks and dilutions of PLX4032 (Plexxikon, Berkeley, Calif.) and AZD6244 (commercially available) were made in DMSO. Cells were quantified using CellTiter-GLO Luminescence (Promega) or crystal violet staining followed by NIH Image J quantification.

M395 R = test: Cell survival assay (72 h); format: cell-based, human; conditions: M395 R (V600EB-RAF amplification-driven), 72 h
Text: as §3

[7] = target: T1, V5-tagged p61 BRAF(V600E/R509H) (human, UniProt P15056 1-766); test: co-immunoprecipitation of FLAG- and V5-tagged forms from 293H cells
T1 construct: domain: splice variant lacking exons 4-8 (554 amino acids); Co-expressed with the FLAG-tagged form in 293H cells; also called dimerization mutant p61 BRAF(V600E/R509H); not shown: V5 tag

| Molecule | growth sensitivity to MEK inhibition [2] | growth sensitivity to inhibitor [3] | growth sensitivity to inhibitor [4] | growth sensitivity to inhibitor [5] | growth sensitivity to MEK inhibition [6] | other results |
| --- | --- | --- | --- | --- | --- | --- |
| O=C(NOC[C@H](O)CO)c1ccc(F)c(F)c1Nc1ccc(I)cc1F [PD0325901] |  |  |  |  |  | sensitivity to the MEK inhibitor [1]: retained sensitivity |
| N#CC(=C(/N)Sc1ccccc1N)/C(C#N)=C(\N)Sc1ccccc1N [U0126] | sensitive | highly resistant | highly resistant | highly resistant | sensitive |  |
| Cn1cnc2c(F)c(Nc3ccc(Br)cc3Cl)c(C(=O)NOCCO)cc21 [AZD6244] | sensitive | highly resistant | highly resistant | highly resistant | sensitive | proliferation under MEKi treatment ([6]; M249 R4 (Q61KN-RAS-driven), 72 h): decreased proliferation; proliferation under MEKi treatment (M395 R): decreased proliferation |
| CCCS(=O)(=O)Nc1ccc(F)c(C(=O)c2c[nH]c3ncc(Cl)cc23)c1F [PLX4720] |  |  |  |  |  | growth resistance to B-RAF inhibitor [2]: resistance; growth resistance to B-RAF inhibitor [3]: resistance |
| FLAG-tagged p61 BRAF(V600E/R509H) (enzyme, human, UniProt P15056 1-766, looked up, domain: splice variant lacking exons 4-8 (554 amino acids); Expressed in 293H cells; immunoprecipitated with FLAG antibody; also called dimerization-deficient mutant; not shown: FLAG tag) MAALSGGGGGGAEPGQALFNGDMEPEAGAGAGAAASSAADPAIPEEVWNIKQMIKLTQEHIEALLDKFGGEHNPPSIYLEAYEEYTSKLDALQQREQQLLESLGNGTDFSVSSSASMDTVTSSSSSSLSVLPSSLSVFQNPTDVARSNPKSPQKPIVRVFLPNKQRTVDLIRDQGFRGDGGSTTGLSATPPASLPGSLTNVKALQKSPGPQRERKSSSSSEDRNRMKTLGRRDSSDDWEIPDGQITVGQRIGSGSFGTVYKGKWHGDVAVKMLNVTAPTPQQLQAFKNEVGVLRKTHHVNILLFMGYSTKPQLAIVTQWCEGSSLYHHLHIIETKFEMIKLIDIARQTAQGMDYLHAKSIIHRDLKSNNIFLHEDLTVKIGDFGLATEKSRWSGSHQFEQLSGSILWMAPEVIRMQDKNPYSFQSDVYAFGIVLYELMTGQLPYSNINNRDQIIFMVGRGYLSPDLSKVRSNCPKAMKRLMAECLKKKRDERPLFPQILASIELLARSLPKIHRSASEPSLNRAGFQTEDFSLYACASPKTPIQAGGYGAFPVH |  |  |  |  |  | binding result [7]: no binding |
